# Key:
# Format in all cases: cell-based, murine
# MARCKS = assay: phospho-MARCKS immunoblot in N9 microglia; details: N9 cells, co-exposed to TNL (pre-incubation 1 hr)
# Description: (§1) TNL was a generous gift of Kissei Pharmaceuticals, LPC (Escherichia coli, 0127:BS), phorbol 12-myristate 13-acetate (PMA) and dexamethasone (DEX) were obtained from Sigma, BAY 11-7082 (BAY), NF-κB SN50 inhibitory peptide (SN50), GF 109203X (GFX) and rottlerin (ROT) were purchased from Biomol. PD098059 (PD) was obtained from Calbiochem. Purified murine interferon-γ (IFN-γ) was purchased from Roche Diagnostics. N9 murine microglial cells were a kind gift from P. Ricciardi-Castagnoli (Righi, M. et al. 1989 supra). Cells were cultured in Dulbecco's modified Eagle's medium (DMEM) supplemented with 10% fetal calf serum (FCS), 2 mM glutamine, penicillin (100 unit/mL) and streptomycin (100 μg/mL) and maintained at 37° in an atmosphere of 5% CO2. Viability was assessed by crystal violet staining.
# (§2) For the preparation of whole cell lysates, the cells were lysed in 0.1 M Tris-HCl (pH 7.2) containing 0.1% NP40, 0.1 mM EDTA and 5 μg/mL phenylmethylsulphonyl fluoride. Twenty micrograms protein was separated by 10-12% SDS-PAGE and electroblotted on nitrocellulose membrane. Equal loading was controlled by Ponceau S staining. […]
# ERK-2 = assay: phospho-ERK-1/2 immunoblot, LPS-stimulated N9 microglia: ERK-2; details: N9 cells, LPS 10 μg/mL 10 min
# Description: as §1, §2
# iNOS [1] = assay: iNOS protein immunoblot, IFN-γ-stimulated N9 microglia; details: N9 cells, IFN-γ 200 u ml, 24 h, tranilast 300 μM
# Protocol: Tranilast was a generous gift of Kissei Pharmaceuticals (Nagano, Japan). Murine recombinant IFN-γ was purchased from Boehringer (Mannheim, Germany). Dexamethasone (DEX) was obtained from Sigma (Deisenhofen, Germany). N9 murine microglial cells were a kind gift from P. Ricciardi-Castagnoli (Milano, Italy) (Righi, M., Mori, L., De Libero, G., Sironi, M., Biondi, A., Mantovani, A., Donini, S. D. and Ricciardi-Castagnoli, P. Eur J Immunol 19(8):1443-1448, 1989). The cells were cultured in Dulbecco's modified Eagle's medium (DMEM) supplemented with 10% foetal calf serum (FCS), 2 mM glutamine and penicillin ([…])/streptomycin (100 μg ml), and maintained at 37° C. in an atmosphere of 5% CO2. Viability was assessed by crystal violet staining.
# For the preparation of whole cell lysates, the cells were rinsed in phosphate-buffered saline (PBS), harvested, centrifuged at 1200×g, lysed in 0.1 M TRIS-HCl (pH 7.2) containing 0.1% NP40, 0.1 mM EDTA and 5 μg ml PMSF for 40 min on ice, and centrifuged at 10,000×g for 10 min. Protein concentration was determined using Biorad reagents with photometric analysis. Proteins (20 μg lane) were separated by 10-12% SDS-PAGE and electroblotted on nitrocellulose. qual protein loading was controlled by Ponceau S staining. […]
# NF-κB = NF-κB reporter assay, IFN-γ-stimulated N9 microglia; details: N9 cells, IFN-γ 200 u ml, tranilast 30-300 μM, 4 h preincubation
# Protocol: N9 murine microglial cells were seeded in a 96-well plate (8×10^3 well) and allowed to adhere for 24 h. The cells were transfected with an NK-κB cis-reporter gene plasmid (PathDetect* no. 219077, Stratagene) which encodes firefly luciferase in a NF-κB-dependent-manner. For each transfection, 0.2 μg DNA and 0.6 μl FuGene (Roche, Mannheim, Germany) were used. The cells were either co-transfected with 0.02 μg of the pFC-Mekk positive control plasmid, included in the NF-κB cis-reporting system from Stratagene, or with the pcDNA-3 plasmid, to maintain a constant amount of total DNA. In order to assess the unspecific background, a control transfection with pcDNA-3 only was included in all experiments. After 24 h the cells were washed twice with PBS (0.12 M NaCl, 0.01 M NaH2PO4×H2O, 0.031 M K2HPO4) and lysed using 40 μl well of Cell Lysis Buffer (mM):tricine pH 7.8 40, NaCl 50, EDTA 2, MgSO4 1, DTT 5, 1% Triton* X-100, all from Sigma. To optimize lysis, a freeze-thaw cycle was performed. Then the lysate was transferred to a LumiNunc™ plate (Nunc, Roskilde, Denmark). Luciferase assay reagent (100 μl) containing (mM): tricine pH 7.8 40, MgSO4 10, EDTA 0.5, DTT 10, coenzyme A 0.5 and beetle luciferin 0.5, ([…]), (all from Sigma) were added and luminescence was measured in a LumimatPlus (EG&G Berthold, Pforzheim, Germany). […]
# iNOS [2] = assay: iNOS activity by Griess assay (nitrite formation), LPS-stimulated N9 microglia; details: N9 cells, LPS 10 μg/mL, 48 hr, concentration series
# Description: as §1
# iNOS activity was assessed by the Griess assay (Platten, M., Wick, W., Wischhusen, J. and Weller, M. Br J Pharmacol 134(6):1279-1284, 2001). Briefly, conditioned supernatant was incubated with an equal volume of Griess reagent containing 1% sulphanilamide, 0.1% naphthylethylenediamine dihydrochloride and 2.5% H3PO4 (Green, L. C., Wagner, D. A., Glogowski, J., Skipper, P. I., Wishnok, J. S, and Tannenbaum, S. R. Anal. Biochem., 126:131-138, 1982) for 5 min. at room temperature. The absorbance was measured at 546 nm. NaNO2 diluted in DMEM served as a standard. To control for cell number, the cells were stained with crystal violet. iNOS activity is expressed as nitrite accumulated in 48 hr/10^5 cells.
smiles,measurement,setting,value
"COc1ccc(/C=C/C(=O)Nc2ccccc2C(=O)O)cc1OC [tranilast, 2-[[3-(3,4-dimethoxyphenyl)-1-oxo-2-propenyl]amino]benzoic acid]",MARCKS phosphorylation,MARCKS,inhibited
same,reduction of phospho-ERK-2 (densitometry),ERK-2; 300 μM TNL,80%
same,ERK-2 phosphorylation after LPS,"ERK-2; TNL pre-incubation 1 hr, concentration series",concentration-dependent inhibition
same,IFN-γ-induced iNOS protein expression,iNOS [1],greatly suppressed
same,NF-κB reporter gene activity in response to IFN-γ,NF-κB,concentration-dependent suppression
same,nitrite formation after LPS,iNOS [2],concentration-dependent decrease
